Data from patent US9527807B2, “Sulfonamide derivative and use thereof” (Takeda Pharmaceutical Company Limited, priority 2011, dated 2016).

Assays:
[1] = system: MAP-induced hyperlocomotion in mice; assay: Inhibition of methamphetamine (MAP)-induced hyperlocomotion; assay type: in vivo; conditions: male ICR mice; compound 10 mg/kg p.o. 60 min before MAP 2 mg/kg s.c.; counts 0-120 min after MAP; Welch's t-test; FIG. 1
Method: Male ICR mice were supplied by CLEA Japan, Inc (Japan). After arrival to the vivarium, animals were allowed a minimum of 1 week for acclimation. They were housed under a 12:12-h light/dark cycle in a temperature- and humidity-controlled laboratory and allowed food and water ad libitum.
A test compound was suspended in 0.5% methylcellulose in distilled water and orally administered (p.o.). Methamphetamine (Dainippon Sumitomo Pharma Co., Ltd.) was dissolved in saline and subcutaneously administered (s.c.). All drugs were dosed in a volume of 10 mL/kg body weight for mice.
The widely used animal models of psychosis have been the measurement of the extent of hyperlocomotion induced by psychostimulants (e.g., amphetamine, cocaine, methamphetamine, MK-801 and phencyclidine) in rodents (Psychopharmacology 1999, vol. 145: 237-250). 2 compounds (A and B) were tested for its ability to antagonize MAP-induced hyperlocomotion in mice. Male ICR mice were habituated in the locomotor chambers with infrared sensors (BrainScienceIdea Co., Ltd. Japan) to the experiment. […] Locomotion activities were measured, and accumulated counts (120 min after administration of MAP) were calculated in each treatment group. All data were represented as means plus the standard errors of the means (n=3-8) and analyzed using Welch's t-test with significance set at ^$P<0.05, ^$$P<0.01 and ^$$$P<0.001. […]

[2] = system: methamphetamine (MAP)-induced hyperlocomotion; assay: methamphetamine (MAP)-induced hyperlocomotion; assay type: in vivo; conditions: FIG. 1

CCS(=O)(=O)N[C@H]1CCOC[C@@H]1COc1ccc(-n2cc(Cl)cn2)cc1F [compound B, N-[(3R,4S)-3-{[4-(4-chloro-1H-pyrazol-1-yl)-2-fluorophenoxy]methyl}tetrahydro-2H-pyran-4-yl]ethanesulfonamide]
inhibition of MAP-induced hyperlocomotion (accumulated locomotion counts) [1]: significant inhibition | inhibition of methamphetamine (MAP)-induced hyperlocomotion [2]: inhibition
